Results from ChEMBL document CHEMBL5143554, “Discovery of phenylpyrrolidine derivatives as a novel class of retinol binding protein 4 (RBP4) reducers” (Bioorg Med Chem, 2022).

Key:
[1] = Inhibition of His-tagged mouse RBP4- biotin immobilized TTR (unknown origin) protein-protein interaction in presence of retinol by ELISA
[2] = Inhibition of His-tagged human RBP4- biotin immobilized TTR (unknown origin) protein-protein interaction in presence of retinol by ELISA
[3] = Reduction in blood RBP4 level in C57BL/6J mouse assessed as RBP4 leve in blood at 10 mg/kg, po after 7 hrs by ELISA (reference value: 100%); type: functional; design: scale not given: the % may be the effect or the level left
[4] = Reduction in blood RBP4 level in C57BL/6J mouse assessed as RBP4 leve in blood at 3 mg/kg, po after 24 hrs by ELISA (reference value: 100 +/- 12%); type: functional; design: scale not given: the % may be the effect or the level left
[5] = Reduction in blood RBP4 level in C57BL/6J mouse assessed as RBP4 leve in blood at 10 mg/kg, po after 24 hrs by ELISA (reference value: 100%); type: functional; design: scale not given: the % may be the effect or the level left
[6] = Reduction in blood RBP4 level in C57BL/6J mouse assessed as RBP4 leve in blood at 0.3 mg/kg, po after 24 hrs by ELISA (reference value: 100 +/- 3.9%); type: functional; design: scale not given: the % may be the effect or the level left
[7] = Reduction in blood RBP4 level in C57BL/6J mouse assessed as RBP4 leve in blood at 10 mg/kg, po after 4 hrs by ELISA (reference value: 100%); type: functional; design: scale not given: the % may be the effect or the level left
[8] = Reduction in blood RBP4 level in C57BL/6J mouse assessed as RBP4 leve in blood at 3 mg/kg, po after 7 hrs by ELISA (reference value: 100 +/- 12%); type: functional; design: scale not given: the % may be the effect or the level left
[9] = Reduction in blood RBP4 level in C57BL/6J mouse assessed as RBP4 leve in blood at 1 mg/kg, po after 24 hrs by ELISA (reference value: 100 +/- 9.8%); type: functional; design: scale not given: the % may be the effect or the level left
Mus musculus = experiment: Reduction in blood RBP4 level in C57BL/6J mouse assessed as RBP4 leve in blood at 0.3 to 10 mg/kg, po after 4 to 24 hrs hrs by ELISA (reference value: 100%); type: functional, organism-based; settings: dose 0.3-10 mg/kg, time 4-24 hrs, DDE = dose-dependent effect
[10] = Cmax in ICR mouse at 1 mg/kg, po; type: ADME, organism-based; design: dose 1 mg/kg, route po; settings: in vivo
[11] = Reduction in blood RBP4 level in C57BL/6J mouse assessed as RBP4 leve in blood at 0.3 mg/kg, po after 7 hrs by ELISA (reference value: 100 +/- 3.9%); type: functional; design: scale not given: the % may be the effect or the level left
[12] = Reduction in blood RBP4 level in C57BL/6J mouse assessed as RBP4 leve in blood at 1 mg/kg, po after 4 hrs by ELISA (reference value: 100 +/- 9.8%); type: functional; design: scale not given: the % may be the effect or the level left
[13] = Reduction in blood RBP4 level in C57BL/6J mouse assessed as RBP4 leve in blood at 1 mg/kg, po after 7 hrs by ELISA (reference value: 100 +/- 9.8%); type: functional; design: scale not given: the % may be the effect or the level left
[14] = Reduction in blood RBP4 level in C57BL/6J mouse assessed as RBP4 leve in blood at 0.3 mg/kg, po after 4 hrs by ELISA (reference value: 100 +/- 3.9%); type: functional; design: scale not given: the % may be the effect or the level left
[15] = Oral bioavilability in ICR mouse at 1 mg/kg; type: ADME, organism-based; settings: in vivo
[16] = AUC in ICR mouse at 1 mg/kg, po; type: ADME, organism-based; design: dose 1 mg/kg, route po; settings: in vivo
[17] = Reduction in blood RBP4 level in C57BL/6J mouse assessed as RBP4 leve in blood at 3 mg/kg, po after 4 hrs by ELISA (reference value: 100 +/- 12%); type: functional; design: scale not given: the % may be the effect or the level left

| IC50 [1] | IC50 [2] | Compound | further results |
| --- | --- | --- | --- |
| 270 nM | 48 nM | FC(F)(F)c1cc(N2CCC(OCc3nnn[nH]3)C2)cc(C(F)(F)F)c1 (racemic) | – |
| 1600 nM | 230 nM | O=C(O)COC1CCN(c2ccc(F)c(C(F)(F)F)c2)C1 (racemic) | – |
| 110 nM | 28 nM | O=C(O)CO[C@H]1CCN(c2cc(C(F)(F)F)cc(C(F)(F)F)c2)C1 | Activity [3]: 39.6%; Activity [4]: 43.6%; Activity [5]: 37.5%; Activity [6]: 75%; Activity [7]: 39.5%; Activity [8]: 41.5%; Activity [9]: 53%; Activity (Mus musculus): Dde; Cmax [10]: 2910 ng/mL; Activity [11]: 56.6%; Activity [12]: 51.6%; Activity [13]: 42.4%; Activity [14]: 64.6%; bioavailability [15]: 58%; AUC [16]: 22000 ng·h/mL; Activity [17]: 50.4% |
| > 30000 nM | 6000 nM | O=C(O)CCc1cnc(-c2cc(C(F)(F)F)cc(C(F)(F)F)c2)o1 | – |
| 3800 nM | 270 nM | O=C(O)CCC1CCN(c2cc(C(F)(F)F)cc(C(F)(F)F)c2)CC1 | – |
| 100 nM | 16 nM | O=C(O)COC1CCN(c2cc(C(F)(F)F)cc(C(F)(F)F)c2)C1 (racemic) | – |
| 740 nM | 40 nM | O=C(O)CCC1CN(c2cc(C(F)(F)F)cc(C(F)(F)F)c2)C1 | – |
| 130 nM | 21 nM | O=C(O)CO[C@@H]1CCN(c2cc(C(F)(F)F)cc(C(F)(F)F)c2)C1 | Activity [3]: 40.5%; Activity [5]: 38.6%; Activity [7]: 42.2%; Cmax [10]: 2920 ng/mL; bioavailability [15]: 51%; AUC [16]: 17900 ng·h/mL |
| 220 nM | 51 nM | O=C(O)CCC1CCN(c2cc(C(F)(F)F)cc(C(F)(F)F)c2)C1 (racemic) | – |
| 420 nM | 96 nM | O=C(O)COC1CCN(c2cc(Cl)cc(C(F)(F)F)c2)C1 (racemic) | – |
| 1500 nM | 240 nM | O=C(O)COC1CCN(c2cccc(C(F)(F)F)c2F)C1 (racemic) | – |
| 420 nM | 24 nM | O=C(O)CCc1nc(-c2cc(C(F)(F)F)cc(C(F)(F)F)c2)co1 | – |
| 870 nM | 82 nM | COc1cc(N2CCC(OCC(=O)O)C2)cc(C(F)(F)F)c1 (racemic) | – |
| 1200 nM | 190 nM | O=C(O)COC1CCN(c2cc(F)cc(C(F)(F)F)c2)C1 (racemic) | – |
| 5900 nM | 1000 nM | O=C(O)C1CCN(c2cc(C(F)(F)F)cc(C(F)(F)F)c2)C1 (racemic) | – |
| 2400 nM | 520 nM | O=C(O)COC1CCN(c2cccc(C(F)(F)F)c2)C1 (racemic) | – |
| 1200 nM | 130 nM | O=C(O)CCc1ncc(-c2cc(C(F)(F)F)cc(C(F)(F)F)c2)o1 | – |
| 200 nM | 150 nM | COC(=O)CO[C@H]1CCN(c2cc(C(F)(F)F)cc(C(F)(F)F)c2)C1 | – |
| 300 nM | 42 nM | O=C(O)CC1CCN(c2cc(C(F)(F)F)cc(C(F)(F)F)c2)C1 (racemic) | – |
